# pIC50: −log10 of the molar value. The source made the active and inactive calls. The calls are words filed in the database; no cut-off is given here.
# Columns and labels:
# Format in all cases: functional, organism-based
# [1] = system: Dolichospermum flos-aquae; test: Antialgal activity against Anabaena flos-aquae NIES 73 after 48 hrs by fluorophotometric method
# Microcystis aeruginosa [2] = test: Antialgal activity against Microcystis aeruginosa NIES 44 after 24 hrs by fluorophotometric method
# Microcystis aeruginosa [3] = test: Antialgal activity against Microcystis aeruginosa NIES 44 up to 500 uM after 24 hrs by fluorophotometric method
smiles,measurement,setting,value
O=C(O)c1cc(O)c(O)c(O)c1 [GALLIC ACID],pIC50,[1],4.48
same,pIC50,Microcystis aeruginosa [2],4.72
O=c1c(O)c(-c2ccc(O)c(O)c2)oc2cc(O)cc(O)c12 [QUERCETIN],pIC50,[1],4.60
same,pIC50,Microcystis aeruginosa [2],4.92
O=c1c(O[C@@H]2O[C@@H](CO)[C@H](O)[C@H]2O)c(-c2ccc(O)c(O)c2)oc2cc(O)cc(O)c12 [AVICULARIN],pIC50,[1],4.55
same,pIC50,Microcystis aeruginosa [2],3.74
OC[C@H]1OC(O)[C@H](O)[C@@H](O)[C@@H]1O (stereo partly drawn),Activity,Microcystis aeruginosa [3],inactive
C[C@@H]1O[C@@H](Oc2c(-c3ccc(O)c(O)c3)oc3cc(O)cc(O)c3c2=O)[C@H](O)[C@H](O)[C@H]1O [QUERCITRIN],pIC50,[1],4.35
same,pIC50,Microcystis aeruginosa [2],5.05
O=C(O[C@@H]1O[C@@H]2COC(=O)c3cc(O)c(O)c(O)c3-c3c(cc(O)c(O)c3O)C(=O)O[C@H]2[C@H](OC(=O)c2cc(O)c(O)c(O)c2)[C@H]1OC(=O)c1cc(O)c(O)c(O)c1)c1cc(O)c(O)c(O)c1 [EUGENIIN],pIC50,[1],5.55
same,pIC50,Microcystis aeruginosa [2],5.80
O=C(O[C@@H]1[C@@H](OC(=O)c2cc(O)c(O)c(O)c2)[C@H](O)O[C@@H]2COC(=O)c3cc(O)c(O)c(O)c3-c3c(cc(O)c(O)c3O)C(=O)O[C@@H]12)c1cc(O)c(O)c(O)c1,pIC50,[1],5.02
same,pIC50,Microcystis aeruginosa [2],5.43
